Laboratory results taken from a melting point compilation (Tetko et al.; mined from patent text by program, amines drawn as free bases though some values may be those of a salt).

melting point	Structure (SMILES)
166 °C	CCOC(=O)C=Cc1ccc(C(=O)Nc2ccc3c(c2)C(C)(C)CCC3(C)C)cc1
270 °C	NS(=O)(=O)c1ccc(-c2cc(-c3nc(-c4ccc(C(F)(F)F)nc4)cc(C(F)F)n3)ccn2)s1
206 to 207 °C	COc1ccc2cc(CNCCNC(=O)C34CC5CC(CC(C5)C3)C4)oc2c1OC
151 to 152 °C	CCCC(C)(c1ccc(O)cc1)c1ccc(O)cc1
46 to 48 °C	COC(=O)c1ccc([N+](=O)[O-])c(OC(C)C)c1
70 to 73 °C	COc1ccc(S(=O)(=O)C2=C(C(=O)NO)CCC2=CCCc2ccccc2)cc1OC
156 °C	CC(=O)NC[C@H]1CN(c2ccc(N3CCC4(CC3)C[C@@H]4C#N)c(F)c2)C(=O)O1
83 to 85 °C	Brc1cccc(C2Cc3cnc(Nc4ccc(CCNCCN5CCCC5)cc4)nc3-c3ccccc32)c1 (stereo not drawn)
163 to 165 °C	O=C(O)C1CCCc2[nH]c3ccccc3c21 (stereo not drawn)
134 to 138 °C	O=[N+]([O-])c1ccc(Sc2ccc(C(F)(F)F)cc2)c2nonc12
236 to 237 °C	O=C(O)c1nn(Cc2ccccc2)c2c1CCc1cc(OCc3cncnc3)ccc1-2
171 to 172 °C	COc1ccc(CCCC(=O)NC(NC(Cc2ccccc2C)=NC#N)C(C)(C)C)cc1 (stereo not drawn)
127 to 129 °C	COC1(Nc2ccccc2CCCc2ccc(Cl)c(Cl)c2)CC=C(C(=O)O)C=C1[N+](=O)[O-] (stereo not drawn)
101 to 102 °C	Cc1cc([N+](=O)[O-])ccc1N=C1C2CC3CC(C2)CC(C3)N1CC(C)C
174 to 176 °C	Oc1ccccc1-c1nc(-c2ccccc2O)n(Cc2cccnc2)n1
160 to 162 °C	O=C(COc1ccccc1)NC1C(=O)N2C(C(=O)OCc3ccc([N+](=O)[O-])cc3)=C(O)CCC12 (stereo not drawn)
115 to 117 °C	COC(=O)CC(C)(C)C(=O)c1ccc2c(c1)CC(N1C(=O)c3ccccc3C1=O)C2 (stereo not drawn)
199 to 201 °C	O=c1cc(NCCN2CCN(c3ncccn3)CC2)cn[nH]1
118 to 120 °C	CN(C=O)c1ccc2[nH]cc(CC#N)c2c1
92 to 93 °C	CC(C)Nc1cccnc1N1CCN(C(=O)c2ccc(C(=O)N3CCN(CCOCCO)CC3)cc2)CC1
177 °C	CC(C)C(C)(NC(c1ccccc1)c1ccccc1)P(O)O (stereo not drawn)
202 to 205 °C	Cc1ccc(C(=O)O)c(NS(C)(=O)=O)c1
117 to 119 °C	O=C(NC1CCN(CCCc2ccc(Cl)cc2)C1)C12CC3CC(CC(C3)C1)C2 (stereo not drawn)
163 to 165 °C	COc1cc(NOC(C)=O)cc(OC)c1

melting point	Structure (SMILES)
214 to 216 °C	c1ccc(-c2ncc(-c3csc(-c4ccccc4)n3)cn2)cc1
151 to 152 °C	COC(=O)c1c(OC)nc2ccc(Cl)cc2c1-c1ccccc1Cl
84 to 88 °C	COC(=O)C1=C(C)NC(C)=C(C(=O)OCCN2CCN(C(c3ccccc3)c3ccccc3)CC2)C1c1cccc(Cl)c1Cl (stereo not drawn)
206 to 207 °C	CCCCn1c(=O)[nH]c(=S)c2[nH]c(CC)nc21
82 °C	CCCN(C(N)=S)C(COC1CCCCO1)c1ccccc1 (stereo not drawn)
125 to 128 °C	CCOC(=O)C(=NOC)c1csc(NC(=O)OCC(Cl)(Cl)Cl)n1
103 to 105 °C	CC1(C)CC(=O)c2c(C3CC3)sc(-c3nccs3)c2C1
142 to 143 °C	O=C(COc1ccccc1)NC1C(=O)N2C(C(=O)OCc3ccccc3)N=CSC12 (stereo not drawn)
176 °C	CCCCCCCC1=CC(=O)NC1(O)CN (stereo not drawn)
186 to 188 °C	O=[N+]([O-])c1ccc2oc(-c3cccs3)nc2c1
88 to 90 °C	CCOC(=O)Cc1ccc(CCNS(=O)(=O)c2ccc(Cl)cc2)cc1
97 to 100 °C	O=[N+]([O-])c1cc(Cl)cc(CCc2ccccn2)c1O
237 to 238 °C	Cc1nc(Nc2ccc(Cl)cc2)sc1-c1nc2ccccc2c(=O)n1-c1ccccc1Cl
67.5 to 69.5 °C	CC1(C)CC(=O)C(SCC2CCCCC2)=C(O)C1
169 to 171 °C	CCC(C)(C)NC(=O)NC1=CC(=O)OC1
249 to 252 °C	CCS(=O)(=O)Nc1cc(-c2nc[nH]c(=O)c2Cl)c(F)cc1C#N
138 to 142 °C	CCOC(=O)NN(C(=O)NC)S(=O)(=O)c1ccccc1
199 to 203 °C	NS(=O)(=O)c1cc2c(cc1Cl)NCN(CCO)S2(=O)=O
202 °C	CCc1nc2c(N)nc3ccccc3c2n1CCCCNC(=O)C1CCCCC1
129 to 130 °C	CCCCCCn1ccc(NC(C)=O)nc1=O
238 to 240 °C	COc1ccc(-n2c(=O)n(OCc3ccccc3)c(=O)c3cc(F)c(Cl)nc32)cc1
174 to 177 °C	O=C1N(Cc2ccc(C(F)(F)F)o2)c2ccccc2C12COc1cc3c(cc12)OCC3 (stereo not drawn)
180 °C	Cc1nsc(-c2ccc(Cl)nn2)n1
163 to 166 °C	CN(C)C/C=C/C(=O)Nc1cc2c(Nc3ccc(F)c(Br)c3)ncnc2cn1

melting point	Structure (SMILES)
197 to 199 °C	O=C(Nc1nncs1)c1ccc2ccccc2c1
58 to 60 °C	c1ccc(COc2cccc3c2NCC3)cc1
135 to 137 °C	CC(C(=O)O)c1ccc(Cc2ccccc2CC(=O)O)cc1 (stereo not drawn)
221 to 225 °C	CCC(=O)NNC(=O)C(=O)NC1CC(C)(C)NC(C)(C)C1
57 to 59 °C	CCOC(=O)c1ccc(NC(C)=O)c(CN(CC)CC)c1
234 °C	COc1ccc(-c2coc3c(C)c(O)ccc3c2=O)cc1OC
233 to 236 °C	Nc1nc2c(c(Nc3cccc(Br)c3)n1)-c1ccccc1C2
250 to 253 °C	COC(=O)c1cccc2[nH]c(=O)n(Cc3ccc(-c4ccccc4C#N)cc3)c12
184 to 187 °C	CCC(=O)Nc1cccc(-c2ccc(Cl)nn2)c1
179 to 180 °C	CC1(O)C(O)C(CO)OC1n1ccc2c(N=[N+]=[N-])ncnc21 (stereo not drawn)
135 °C	CCc1nn(CCO)c(N)c1Cc1cc(Cl)cc(Cl)c1
206 °C	Nc1ccc(-n2c(-c3ccccc3)cc3c2CCCC3)cc1C(=O)O
205 °C	ClCCCOc1ccccc1Nc1nc(Cl)nc2[nH]cnc12
171 to 172 °C	O=C(c1ccc(-n2ccnc2)cc1)N1Cc2cccn2Cc2ccccc21
113 to 114 °C	CCc1nc(Cl)c(Oc2cc(OC)ccc2Cl)c(Cl)n1
155 to 157 °C	COC(=O)C(=O)c1cc(OC)c(O)c([N+](=O)[O-])c1
203 to 204 °C	CCOc1cc2cc(CO)cc(-c3ccnc(-n4nc(-c5ccccc5)c5ccccc5c4=O)c3)c2cc1OCC
134 to 135 °C	Nc1cccc2c1OCCO2
102 to 104 °C	O=S(=O)(c1ccc(Br)cc1)N1CCNCC1
235 °C	O=C(CN1C(=O)c2ccccc2C1=O)Nc1cccc(C(F)(F)F)c1
66 to 67 °C	CCCn1nc(-c2ccc(OC(=O)CC)cc2)c2cccc(Cl)c21
83 to 84 °C	CCCCCCCCCCCc1nnc2n1-c1ccccc1C(c1ccccc1)OC2 (stereo not drawn)

Structure (SMILES)	melting point
O=C1[C@H](O)CCN1CC#CCN1CCCC1	81 to 85 °C
Nc1ccc2[nH]cc(C3=CCN4CCCC4C3)c2c1 (stereo not drawn)	208 to 210 °C
CCc1cccc2c1N(CC(=O)N1CC3CCC(CC3)C1)C(=O)C(NC(=O)Nc1cccc(-c3nnn[nH]3)c1)N=C2c1ccccc1F (stereo not drawn)	226 to 232 °C
